This test has as its target protein A (a kinase). Kind of test: Inhibition of protein A kinase activity (33P-ATP peptide phosphorylation, filter, scintillation counting). It is filed as biochemical. As to conditions: for IC50: Table 2, 10 μM [gamma-33P]-ATP, 10 μM peptide substrate, 40 minutes at room temperature; for pIC50 (experimental): Table 3, given with negative sign. The procedure:
The hit compound derivatives synthesized as real compounds through Example 3 were evaluated for ability to inhibit the activity of protein A (a kinase).
Specifically, […] of protein A was incubated along with 8 mM MOPS (pH 7.0), 0.2 mM EDTA, 10 mM magnesium acetate, 10 μM [gamma-33P]-ATP, and 10 μM […], which is a phosphorylation target peptide. After incubation at room temperature for 40 minutes, the reaction was terminated by adding phosphoric acid to a final concentration of 0.5%. The reaction mixture was spotted onto a filter, then washed four times with 0.425% phosphoric acid for 4 minutes each. After washing once with methanol, the sample was dried and measured for radioactivity (scintillation counting) to assess phosphorylation (i.e., […](p)EDEEE peptide detection).

On to `CC#CC(=O)Nc1cccc(-c2cc(NC(=O)c3cc4c(s3)CCOC4)[nH]n2)c1` [Compound D1008], for which the half-inhibitory concentration (IC50) was 19 nM and the pIC50 (experimental) stood at 7.72.
Molecule `C#CC(=O)Nc1cccc(-c2cc(NC(=O)c3cc4nccnc4s3)[nH]n2)c1` [Compound D0101] yielded an IC50 of 13 nM and a pIC50 (experimental) of 7.89.
The like results for `C#CC(=O)Nc1cccc(-c2cc(NC(=O)c3cc4ncc(O)nc4s3)[nH]n2)c1` [Compound D0137] were, in that order, 40 nM and 7.4.
In the same order, the values of `C#CC(=O)Nc1cccc(-c2cc(NC(=O)c3cc4ccc(O)cc4o3)[nH]n2)c1` [Compound D0139] are 22 nM and 7.66.
As for `CC#CC(=O)Nc1cccc(-c2cc(NC(=O)c3cc4cc(OC)ccc4o3)[nH]n2)c1` [Compound D0069], the concentration for half-maximal inhibition (IC50) was 30 nM and the pIC50 (experimental) amounted to 7.52.
With `C#CC(=O)Nc1cccc(-c2cc(NC(=O)c3cc4ncc(C(=O)O)nc4s3)[nH]n2)c1` [DM009], the IC50 is 7 nM and the pIC50 (experimental) was found to be 8.15.
In the same order, the values of `CC#CC(=O)Nc1cccc(-c2cc(NC(=O)c3cc4c(s3)CC(=O)NC4)[nH]n2)c1` [Compound D1011] are 8 nM and 8.1.
`C#CC(=O)Nc1cccc(-c2cc(NC(=O)c3cc4c(s3)CCOC4)[nH]n2)c1` [Compound D0157] came in with a 50% inhibitory concentration (IC50) of 4 nM and a pIC50 (experimental) of 8.4.
The like results for `O=C(Nc1cc(-c2cccc(NS(=O)(=O)N3CCOCC3)c2)n[nH]1)c1cc2nccnc2s1` [Compound D0025] were, in that order, 62 nM and 7.21.
The like results for `O=C(Nc1cc(-c2cccc(NS(=O)(=O)N3CCOCC3)c2)n[nH]1)c1cccc2ncsc12` [Compound D0083] were, in that order, 129 nM and 6.89.
In the case of `CC(C)(C)C(=O)Nc1cccc(-c2cc(NC(=O)c3nc4cccnc4s3)[nH]n2)c1` [Compound D0065], half-maximal inhibition (IC50) required 119 nM and the pIC50 (experimental) came out at 6.92.
The like results for `C#CC(=O)Nc1cccc(-c2cc(NC(=O)c3cc4ccc(O)cc4o3)[nH]n2)c1` [Compound D0135] were, in that order, 63 nM and 7.2.
Consider `C#CC(=O)Nc1cccc(-c2cc(NC(=O)c3cc4ncc(C(N)=O)nc4s3)[nH]n2)c1` [DM010], for which the half-inhibitory concentration (IC50) is 10 nM and the pIC50 (experimental) was 8.
In the same order, the values of `CC#CC(=O)Nc1cccc(-c2cc(NC(=O)c3cc4c(s3)CCNC4)[nH]n2)c1` [Compound D1010] are 31 nM and 7.51.
In the same order, the values of `C#CC(=O)Nc1cccc(-c2cc(NC(=O)c3ccc4nonc4c3)[nH]n2)c1` [Compound D0054] are 26 nM and 7.58.

A word on the IC50: it is the point on the concentration scale where inhibition reaches its midpoint.
